# Test results as given in patent US10112954B2, “Bicyclic heteroaryl derivatives having inhibitory activity for protein kinase” (HANMI PHARM. CO., LTD., priority 2010, dated 2018).
# Target: T1, FGFR3 (Homo sapiens, UniProt P22607)
# T1 construct: purchased Upstate Company
# Experiment: Inhibition of FGFR3 kinase (fluorescence polarization kinase assay)
# Format: biochemical
# Details: Table 2, class symbols; read-out: FGFR3 IC50
# Protocol: (§1) Inhibition activities of kinases of the inventive compounds (test compounds) prepared in the Examples were assessed and represented as IC50 values.
# (§2) Kinases used in Test Examples 1 to 3 were purchased from Upstate Company.
# (§3) 100 mM HEPES (pH 7.4), 25 mM MgCl2, 10 mM MnCl2 and 250 μM Na3VO4 were mixed to prepare a kinase buffer. Each of kinases to be measured was diluted to a concentration of 25˜300 ng per one reaction according to its activity with the kinase buffer. Also, each of the test compounds was serially diluted to a concentration starting from 100 nM up to 0.1 nM with the kinase buffer. 10 μl of the serially diluted solution of each of the test compounds and 10 μl of the diluted kinase were added to each well of a 96-well microplate, and the plate was incubated at room temperature for 10 mins. 10 μl of a substrate and 10 μl of ATP were successively added thereto to initiate a kinase reaction, and the resulting mixture was incubated at room temperature for 1 hour. The ATP was used in a form of a solution diluted to a concentration determined according to a kinase's Km value with distilled water. 10˜100 ng/mL poly(Glu, Tyr) 4:1 (Sigma) was used as the substrate. 10 μl of 6 mM EDTA was added to each well and stirred for 5 mins to terminate the kinase reaction. For a measurement of phosphorylation degree, 50 μl of a solution containing anti-phosphotyrosine antibody and fluorescein-labeled phosphopeptide was added to the reaction mixture, followed by incubating for 30 mins. The FP (fluorescence polarization) value of each well was determined with a Victor™ D fluorescence meter (Perkin Elmer Lifesciences).
# (§4) IC50, the concentration at which 50% inhibition occurs, was evaluated based on the difference between the final concentration of the test cells and the initial concentration of the cells incubated in a well not-treated with the test compound which was regarded as 100%. IC50 values of the test compounds on the FGFR kinase were shown in Table 2, and those of the test compound obtained in Example 177 on various kinases, in Table 3.
# T1 sequence (P22607 23-806, species assumed): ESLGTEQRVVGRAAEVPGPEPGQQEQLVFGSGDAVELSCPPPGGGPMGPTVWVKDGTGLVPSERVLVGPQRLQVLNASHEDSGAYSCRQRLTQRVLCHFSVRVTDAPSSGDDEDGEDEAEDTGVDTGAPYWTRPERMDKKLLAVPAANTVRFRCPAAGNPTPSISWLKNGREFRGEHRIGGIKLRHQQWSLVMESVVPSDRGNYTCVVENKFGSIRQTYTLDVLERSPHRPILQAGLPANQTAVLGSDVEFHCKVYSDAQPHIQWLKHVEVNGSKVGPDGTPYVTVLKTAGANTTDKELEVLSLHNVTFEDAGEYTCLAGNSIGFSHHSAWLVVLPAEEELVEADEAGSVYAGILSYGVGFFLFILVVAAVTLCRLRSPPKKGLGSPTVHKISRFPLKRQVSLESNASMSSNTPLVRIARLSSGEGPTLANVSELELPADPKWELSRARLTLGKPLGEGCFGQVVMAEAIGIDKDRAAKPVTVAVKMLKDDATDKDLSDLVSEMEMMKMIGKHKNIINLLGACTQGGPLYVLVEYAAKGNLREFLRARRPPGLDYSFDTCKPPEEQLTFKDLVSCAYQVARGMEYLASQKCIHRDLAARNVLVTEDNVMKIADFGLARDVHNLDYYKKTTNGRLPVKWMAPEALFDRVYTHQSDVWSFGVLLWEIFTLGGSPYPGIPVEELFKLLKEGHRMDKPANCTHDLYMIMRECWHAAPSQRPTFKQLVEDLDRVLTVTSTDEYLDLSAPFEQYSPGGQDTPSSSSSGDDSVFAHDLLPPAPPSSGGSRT
row,IC50,SMILES
1,1000 to 5000 nM,"COc1cc(OC)c(Cl)c(NC(=O)c2csc3c(NS(C)(=O)=O)ncnc23)c1Cl [Example 206, N-(2,6-dichloro-3,5-dimethoxyphenyl)-4-(methylsulfonamido) thieno[3,2-d]pyrimidine-7-carboxamide]"
2,100 to 500 nM,"COc1cc(OC)c(Cl)c(NC(=O)c2csc3c(Nc4cc(OCCN(C)C)ncn4)ncnc23)c1Cl [Example 209, N-(2,6-dichloro-3,5-dimethoxyphenyl)-4-(6-(2-(dimethylamino)eth-oxy)pyrimidin-4-ylamino)thieno[3,2-d]pyrimidine-7-carboxamide]"
3,1 to 100 nM,"CCN1CCN(Cc2ccc(Nc3ncnc4c(C(=O)Nc5c(Cl)c(OC)cc(OC)c5Cl)csc34)nc2)CC1 [Example 179, N-(2,6-dichloro-3,5-dimethoxyphenyl)-4-(5-((4-ethylpiperazin-1-yl)methyl)pyridin-2-ylamino)thieno[3,2-d]pyrimidine-7-carboxamide]"
4,1 to 100 nM,"CCN(CC)C(=O)Cc1ccnc(Nc2ncnc3c(C(=O)Nc4c(Cl)c(OC)cc(OC)c4Cl)csc23)c1 [Example 292, N-(2,6-dichloro-3,5-dimethoxyphenyl)-4-(4-(2-(diethylamino)-2-oxoethyl)pyridin-2-ylamino)thieno[3,2-d]pyrimidine-7-carboxamide]"
5,1 to 100 nM,"COc1cc(OC)c(Cl)c(NC(=O)c2csc3c(NC4CC4)ncnc23)c1Cl [Example 168, 4-(cyclopropylamino)-N-(2,6-dichloro-3,5-dimethoxyphenyl) thieno[3,2-d]pyrimidine-7-carboxamide]"
6,500 to 1000 nM,"COc1cc(OC)c(Cl)c(NC(=O)c2csc3c(Nc4ccc5cn[nH]c5c4)ncnc23)c1Cl [Example 229, 4-(1H-indazol-6-ylamino)-N-(2,6-dichloro-3,5-dimethoxyphenyl) thieno[3,2-d]pyrimidine-7-carboxamide]"
7,1000 to 5000 nM,"CCOC(=O)CNc1ncnc2c(C(=O)Nc3c(Cl)c(OC)cc(OC)c3Cl)csc12 [Example 302, ethyl 2-(7-(2,6-dichloro-3,5-dimethoxyphenyl-carbamoyl)thieno[3,2-d]pyrimidin-4-ylamino)acetate]"
8,1 to 100 nM,"COc1cc(OC)c(Cl)c(NC(=O)c2csc3c(Nc4cc(NCCN5CCOCC5)ncn4)ncnc23)c1Cl [Example 208, N-(2,6-dichloro-3,5-dimethoxyphenyl)-4-(6-(2-morpholinoethyl-amino)pyrimidin-4-ylamino)thieno[3,2-d]pyrimidine-7-carboxamide]"
9,100 to 500 nM,"COc1cc(OC)c(Cl)c(NC(=O)c2csc3c(Nc4ccc(C)cn4)ncnc23)c1Cl [Example 178, N-(2,6-dichloro-3,5-dimethoxyphenyl)-4-(5-methylpyridin-2-ylamino)thieno[3,2-d]pyrimidine-7-carboxamide]"
10,1 to 100 nM,"COc1cc(OC)c(Cl)c(NC(=O)c2csc3c(Nc4cc(CN5CCSC5)ccn4)ncnc23)c1Cl [Example 291, N-(2,6-dichloro-3,5-dimethoxyphenyl)-4-(4-(thiazolidin-3-ylmethyl)pyridin-2-ylamino)thieno[3,2-d]pyrimidine-7-carboxamide]"
11,1 to 100 nM,"CCN1CCN(c2cc(Nc3ncnc4c(C(=O)Nc5c(Cl)c(OC)cc(OC)c5Cl)csc34)ncn2)CC1 [Example 182, N-(2,6-dichloro-3,5-dimethoxyphenyl)-4-(6-(4-ethylpiperazin-1-yl)pyrimidin-4-ylamino)thieno[3,2-d]pyrimidine-7-carboxamide]"
12,1 to 100 nM,"COc1cc(OC)c(Cl)c(NC(=O)c2csc3c(Nc4cc(C)ccn4)ncnc23)c1Cl [Example 270, N-(2,6-dichloro-3,5-dimethoxyphenyl)-4-(4-methylpyridin-2-ylamino)thieno[3,2-d]pyrimidine-7-carboxamide]"
13,1000 to 5000 nM,"CCN(CC)Cc1cccc(Nc2ncnc3c(C(=O)Nc4c(Cl)c(OC)cc(OC)c4Cl)csc23)n1 [Example 273, N-(2,6-dichloro-3,5-dimethoxyphenyl)-4-(6-((diethylamino)methyl)pyridin-2-ylamino)thieno[3,2-d]pyrimidine-7-carboxamide]"
14,1 to 100 nM,"COc1cc(OC)c(Cl)c(NC(=O)c2csc3c(Nc4ccc(C(N)=O)cn4)ncnc23)c1Cl [Example 274, 4-(5-carbamoylpyridin-2-ylamino)-N-(2,6-dichloro-3,5-dimethoxyphenyl) thieno[3,2-d]pyrimidine-7-carboxamide]"

# The remaining lines, values behind:
row,SMILES,IC50
1,"COc1cc(OC)c(Cl)c(NC(=O)c2csc3c(Nc4ccc(C(=O)N5CCOCC5)cn4)ncnc23)c1Cl [Example 255, N-(2,6-dichloro-3,5-dimethoxyphenyl)-4-(5-(morpholine-4-carbonyl)pyridin-2-ylamino)thieno[3,2-d]pyrimidine-7-carboxamide]",1 to 100 nM
2,"COc1cc(OC)c(Cl)c(/C=C/c2csc3c(N)ncnc23)c1Cl [Example 76, 7-(2,6-dichloro-3,5-dimethoxystyryl) thieno[3,2-d]pyrimidine-4-amine]",1000 to 5000 nM
3,"COc1cc(OC)c(Cl)c(NC(=O)c2csc3c(Nc4ccc(CN5CCCC(C(F)(F)F)C5)cn4)ncnc23)c1Cl (stereo not shown) [Example 259, N-(2,6-dichloro-3,5-dimethoxyphenyl)-4-(5-((3-(trifluoromethyl)piperidin-1-yl)methyl)pyridin-2-ylamino)thieno[3,2-d]pyrimidine-7-carboxamide]",1000 to 5000 nM
4,"COc1cc(OC)c(Cl)c(NC(=O)c2csc3c(Nc4ccc(CN5CCNC(=O)C5)cn4)ncnc23)c1Cl [Example 263, N-(2,6-dichloro-3,5-dimethoxyphenyl)-4-(5-((3-oxopiperazin-1-yl)methyl)pyridin-2-ylamino)thieno[3,2-d]pyrimidine-7-carboxamide]",1 to 100 nM
5,"COc1c(Cl)c(NC(=O)c2csc3c(Nc4ccc(F)c(Cl)c4)ncnc23)c(Cl)c(OC)c1Br [Example 287, N-(4-bromo-2,6-dichloro-3,5-dimethoxyphenyl)-4-(3-chloro-4-fluorophenylamino) thieno[3,2-d]pyrimidine-7-carboxamide]",1000 to 5000 nM
6,"CCN1CCN(c2ccc(C(=O)Nc3ncnc4c(C(=O)Nc5c(Cl)c(OC)c(Br)c(OC)c5Cl)csc34)cc2)CC1 [Example 203, N-(4-bromo-2,6-dichloro-3,5-dimethoxyphenyl)-4-(4-(4-ethylpiperazin-1-yl)benzamido)thieno[3,2-d]pyrimidine-7-carboxamide]",1000 to 5000 nM
7,"CCN1CCN(c2ccc(C(=O)Nc3ncnc4c(C(=O)Nc5c(Cl)c(OC)cc(OC)c5Cl)csc34)cc2)CC1 [Example 204, N-(2,6-dichloro-3,5-dimethoxyphenyl)-4-(4-(4-ethylpiperazin-1-yl)benzamido)thieno[3,2-d]pyrimidine-7-carboxamide]",100 to 500 nM
8,"CCN1CCN(c2cccc(Nc3ncnc4c(C(=O)Nc5c(Cl)c(OC)cc(OC)c5Cl)csc34)c2)CC1 [Example 201, N-(2,6-dichloro-3,5-dimethoxyphenyl)-4-(3-(4-ethylpiperazin-1-yl)phenylamino) thieno[3,2-d]pyrimidine-7-carboxamide]",100 to 500 nM
9,"COc1cc(OC)c(Cl)c(NC(=O)c2csc3c(Nc4ccc(CC(=O)N5CCOCC5)cn4)ncnc23)c1Cl [Example 257, N-(2,6-dichloro-3,5-dimethoxyphenyl)-4-(5-(2-morpholino-2-oxoethyl)pyridin-2-ylamino)thieno[3,2-d]pyrimidine-7-carboxamide]",1 to 100 nM
10,"COc1cc(OC)c(Cl)c(NC(=O)c2csc3c(Nc4ccc(CN5CCOCC5)cn4)ncnc23)c1Cl [Example 247, N-(2,6-dichloro-3,5-dimethoxyphenyl)-4-(5-(morpholinomethyl)pyridin-2-ylamino)thieno[3,2-d]pyrimidine-7-carboxamide]",1 to 100 nM
11,COc1cc(NC(=O)c2csc3c(Nc4ccccc4)ncnc23)c2ccoc2c1 [Example 114],1000 to 5000 nM
12,COc1cc(NC(=O)c2csc3c(N)ncnc23)c2ccoc2c1 [Example 113],1000 to 5000 nM
13,"COc1cc(OC)c(Cl)c(NC(=O)c2csc3c(Nc4ccc(C(=O)NN5CCN(C)CC5)cn4)ncnc23)c1Cl [Example 268, N-(2,6-dichloro-3,5-dimethoxyphenyl)-4-(5-(4-methylpiperazin-1-ylcarbamoyl)pyridin-2-ylamino)thieno[3,2-d]pyrimidine-7-carboxamide]",1 to 100 nM
14,"CCN(CC)CCCCNc1ncnc2c(C(=O)Nc3c(Cl)c(OC)c(Br)c(OC)c3Cl)csc12 [Example 157, N-(4-bromo-2,6-dichloro-3,5-dimethoxyphenyl)-4-(4-(diethylamino)butyl-amino)thieno[3,2-d]pyrimidine-7-carboxamide]",1000 to 5000 nM
15,"CCN1CCN(CCCNc2ncnc3c(C(=O)Nc4c(Cl)c(OC)cc(OC)c4Cl)csc23)CC1 [Example 171, N-(2,6-dichloro-3,5-dimethoxyphenyl)-4-(3-(4-ethylpiperazin-1-yl)propylamino) thieno[3,2-d]pyrimidine-7-carboxamide]",1000 to 5000 nM

# Target: T2, FGFR1 (Homo sapiens, UniProt P11362)
# T2 construct: purchased Upstate Company
# Experiment: Inhibition of FGFR1 kinase (fluorescence polarization kinase assay)
# Format: biochemical
# Details: Table 2, class symbols; read-out: FGFR1 IC50
# Protocol: as §1, §2, §3, §4
# T2 sequence (P11362 22-822, species assumed): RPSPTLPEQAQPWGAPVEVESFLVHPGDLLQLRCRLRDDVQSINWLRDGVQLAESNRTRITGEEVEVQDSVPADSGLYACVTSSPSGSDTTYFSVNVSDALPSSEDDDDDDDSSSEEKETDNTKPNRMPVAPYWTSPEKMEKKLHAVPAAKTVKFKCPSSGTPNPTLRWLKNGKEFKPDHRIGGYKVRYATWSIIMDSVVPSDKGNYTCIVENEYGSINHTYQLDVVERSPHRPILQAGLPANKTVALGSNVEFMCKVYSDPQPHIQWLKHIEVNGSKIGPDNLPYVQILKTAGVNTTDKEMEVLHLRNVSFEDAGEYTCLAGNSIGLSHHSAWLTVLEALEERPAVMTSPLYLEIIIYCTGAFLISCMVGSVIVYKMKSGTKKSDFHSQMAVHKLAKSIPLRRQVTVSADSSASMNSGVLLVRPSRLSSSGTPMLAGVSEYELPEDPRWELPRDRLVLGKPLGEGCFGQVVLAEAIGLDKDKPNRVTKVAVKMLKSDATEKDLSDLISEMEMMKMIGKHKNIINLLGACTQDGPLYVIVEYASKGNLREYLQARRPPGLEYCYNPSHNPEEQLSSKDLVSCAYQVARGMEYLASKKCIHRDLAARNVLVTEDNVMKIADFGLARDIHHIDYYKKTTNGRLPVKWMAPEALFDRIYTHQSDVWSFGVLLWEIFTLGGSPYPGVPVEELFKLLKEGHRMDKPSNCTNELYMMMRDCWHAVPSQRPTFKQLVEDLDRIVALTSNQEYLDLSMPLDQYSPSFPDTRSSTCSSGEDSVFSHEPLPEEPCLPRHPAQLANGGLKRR
row,IC50,SMILES
1,1 to 100 nM,"CCN1CCN(Cc2ccc(Nc3ncnc4c(C(=O)Nc5c(Cl)c(OC)cc(OC)c5Cl)csc34)nc2)CC1 [Example 179, N-(2,6-dichloro-3,5-dimethoxyphenyl)-4-(5-((4-ethylpiperazin-1-yl)methyl)pyridin-2-ylamino)thieno[3,2-d]pyrimidine-7-carboxamide]"
2,1 to 100 nM,"COc1cc(OC)c(Cl)c(NC(=O)c2csc3c(Nc4ccc5cn[nH]c5c4)ncnc23)c1Cl [Example 229, 4-(1H-indazol-6-ylamino)-N-(2,6-dichloro-3,5-dimethoxyphenyl) thieno[3,2-d]pyrimidine-7-carboxamide]"
3,1000 to 5000 nM,"CCOC(=O)CNc1ncnc2c(C(=O)Nc3c(Cl)c(OC)cc(OC)c3Cl)csc12 [Example 302, ethyl 2-(7-(2,6-dichloro-3,5-dimethoxyphenyl-carbamoyl)thieno[3,2-d]pyrimidin-4-ylamino)acetate]"

# More lines, now with the values behind:
row,SMILES,IC50
1,"CCN1CCN(c2cccc(Nc3ncnc4c(C(=O)Nc5c(Cl)c(OC)cc(OC)c5Cl)csc34)c2)CC1 [Example 201, N-(2,6-dichloro-3,5-dimethoxyphenyl)-4-(3-(4-ethylpiperazin-1-yl)phenylamino) thieno[3,2-d]pyrimidine-7-carboxamide]",100 to 500 nM
2,"COc1cc(OC)c(Cl)c(NC(=O)c2csc3c(Nc4ccc(CN5CCOCC5)cn4)ncnc23)c1Cl [Example 247, N-(2,6-dichloro-3,5-dimethoxyphenyl)-4-(5-(morpholinomethyl)pyridin-2-ylamino)thieno[3,2-d]pyrimidine-7-carboxamide]",1 to 100 nM
